Calls of active or inactive are those of the source. The calls are words filed in the database; no cut-off is given here.
How the values were obtained:
[1] = biological target: Protein Wnt-3a (Mus musculus) (UniProt P27467); experiment: Activation of mouse Wnt3a signaling expressed in HEK293 STF cells assessed as increase in transcriptional activity after 24 hrs by luciferase reporter gene-based lactate dehydrogenase assay; assay type: cell-based
[2] = system: HEK293; experiment: Activation of Neuropeptide S receptor I107 mutant expressed in HEK293 cells assessed as increase in transcriptional activity after 24 hrs by luciferase reporter gene-based lactate dehydrogenase assay; assay type: cell-based

Sequence of Protein Wnt-3a (Mus musculus) (P27467 whole entry): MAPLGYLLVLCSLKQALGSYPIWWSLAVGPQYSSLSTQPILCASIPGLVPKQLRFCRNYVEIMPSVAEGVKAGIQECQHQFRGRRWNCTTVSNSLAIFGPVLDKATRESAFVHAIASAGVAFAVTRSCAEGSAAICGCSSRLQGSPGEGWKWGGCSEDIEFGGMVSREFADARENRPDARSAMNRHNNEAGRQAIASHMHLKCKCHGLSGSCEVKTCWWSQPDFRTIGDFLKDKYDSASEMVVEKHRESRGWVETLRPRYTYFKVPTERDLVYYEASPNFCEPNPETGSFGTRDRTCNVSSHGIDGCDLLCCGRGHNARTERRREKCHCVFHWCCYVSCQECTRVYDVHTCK

Row | Activity [1] | Structure (SMILES) | Activity [2]
1 | Active | Nc1ccccc1NC(=O)c1ccc(CNC(=O)OCc2cccnc2)cc1 | 
2 | Active | CC(/C=C/C(=O)NO)=C\[C@@H](C)C(=O)c1ccc(N(C)C)cc1 | 
3 | Active | O=C(CCCCCCC(=O)Nc1ccccc1)NO | 
4 | Active | O=C(NCCSSCCNC(=O)/C(Cc1ccc(O)c(Br)c1)=N/O)/C(Cc1ccc(O)c(Br)c1)=N/O | Active
